Test results from US20080269173A1, “Composition for Stimulating Growth of Dermal Papilla Cells and Promoting Hair Follicle Growth Comprising Vitamin C Derivatives” (Trichogene Inc., priority 2005, published 2008).

Assays:
[1] = tested on: human anagen hair follicle; experiment: In vitro growth of isolated human anagen hair follicles (organ culture, length measurement); assay type: cell-based; settings: 0.05 mM and 0.25 mM, 9 days, Williams E medium; P<0.05
Method: Biopsy samples were obtained from a […] region of scalp of a patient with androgenic alopecia during the hair transplantation operation with their approval in the Kyungpook National University hospital. The hair follicles were isolated and incubated according to the known method (Philpott et al., J Cell Sci. 97:463-471, 1990).
The anagen hair follicles were isolated from the scalp under a stereoscopic binocular microscope. Upper one third of the isolated anagen hair follicles were cut out, and lower two third of them were incubated at 37° C. in a Williams E medium (Sigma, USA) under a 5% CO2 atmosphere. The hair follicles were incubated for 9 days in a medium including Asc 2-P, and then their length was measured using a stereoscopic microscope.

osteoblast = settings: Hata et al., 1988; cited from earlier work
dermal papilla cells [2] = experiment: Growth of cultured dermal papilla cells (MTT method); assay type: cell-based, human; settings: 0.25 mM, 5 days
Method: The dermal papilla was isolated from a bulb of the severed hair follicles under the binocular microscope, and then transferred into a tissue culture dish. The dermal papilla was cultured at 37° C. for 5 days under a 5% CO2 atmosphere in the DMEM medium supplemented with penicillin (100 U/ml), streptomycin (100 μg/ml) and 20% heat-inactivated fetal bovine serum (FBS, Hyclone, USA), and then subcultured in the same condition. The dermal papilla cells were kept in the DMEM including 10% FBS after the subculture. The secondary subcultured cells were used in the present invention.
The dermal papilla cells were incubated overnight at a density of 5,000 cells/well in a 96-well plate containing a DMEM medium supplemented with 10% FBS. The medium was then exchanged to the DMEMs including varied concentrations of Asc 2-P and incubated for 5 days, and then the cell number was measured using a MTT method.

human dermal fibroblast = settings: Hata et al., 1988; cited from earlier work
[3] = tested on: versican in the hair follicle; experiment: Immunostaining of versican in hair follicle; assay type: cell-based, human; settings: 0.1 mM and 1 mM, 5 days
Method: The hair follicles were incubated for 5 days in the media treated with 0.1 mM and 1 mM Asc 2-P, and then their immunostaining experiments were conducted against versican.

dermal papilla cells [4] = experiment: RT-PCR gene expression (mRNA) in dermal papilla cells; assay type: cell-based, human; settings: 0.25 mM, 5 days
Method: The dermal papilla cells were incubated for 5 days in a medium including 0.25 mM Asc 2-P, and then their RNA was isolated using a TRIzol reagent (Gibco-BRL, Grand Island, N.Y.). cDNA was synthesized from the RNA using a cDNA synthesis kit containing superscript II reverse transcriptase and random hexamer (Gibco-BRL). The cDNA was amplified with sets of gene-specific primers (Table 1).
Gene expression levels of IGF-1 (insulin like growth factor 1), HGF (hepatocyte growth factor), VEGF (vascular endothelial growth factor), KGF (keratinocyte growth factor), collagen I, collagen III, versican and alkaline phosphatase (ALP) were analyzed in the present invention.

[5] = aqueous solution, general culture conditions; cited from earlier work

Structure (SMILES)	growth (length) of hair follicle [1]	growth of osteoblast (osteoblast)	growth of dermal papilla cells (cell number, MTT) (dermal papilla cells [2]; 0.05 mM, 1 mM and 5 mM, P<0.05)	growth of dermal papilla cells relative to the control group (dermal papilla cells [2]; MTT)	growth of human dermal fibroblast (human dermal fibroblast)	expression of versican in the hair follicle (immunostaining) [3]	HGF mRNA (dermal papilla cells [4])	IGF-1 mRNA (dermal papilla cells [4])	KGF mRNA (dermal papilla cells [4])	VEGF mRNA (dermal papilla cells [4])	alkaline phosphatase (ALP) mRNA (dermal papilla cells [4])	collagen I mRNA (dermal papilla cells [4])	collagen III mRNA (dermal papilla cells [4])	versican mRNA (dermal papilla cells [4])	stability [5]
O=C1O[C@H]([C@@H](O)CO)C(O)=C1OP(=O)(O)O [Asc 2-P, L-ascorbic acid-2-phosphate magnesium]	significantly grown	stimulates growth	significantly stimulated growth	2.4 times	stimulates growth	increased	no effect	increased	no effect	no effect	increased	no effect	no effect	increased	more stable than the vitamin C
O=C1O[C@H]([C@@H](O)CO)C(O)=C1O [vitamin C, L-ascorbic acid]		stimulates growth			stimulates growth										rapidly oxidized and degraded
